Source: US7074789B2, “Kinase inhibitors” (Amgen Inc., priority 1999, dated 2006)

Assays:
Format in all cases: biochemical
Lck = molecular target: T1, Lck (Homo sapiens, UniProt P06239); assay: Kinase inhibition assay (33P transfer), Lck; settings: Table 3; read-out: Lck-1
T1 construct: Kinases are expressed as either kinase domains or full length constructs; made in house
Procedure, shortened: (§1)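 GST/His-tagged kinase (domain or full length; E. coli or baculovirus) + [33P]ATP on plates coated with poly(Glu,Tyr) 4:1 or poly(Arg,Ser) 3:1; incubate, wash 0.5% H3PO4, add scintillant, count.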

Zap-70 = molecular target: T2, Zap-70 (Homo sapiens, UniProt P43403); assay: Kinase inhibition assay (33P transfer), Zap-70; settings: Table 3; read-out: Zap-1
T2 construct: Kinases are expressed as either kinase domains or full length constructs; made in house
T2 sequence (P43403 1-619): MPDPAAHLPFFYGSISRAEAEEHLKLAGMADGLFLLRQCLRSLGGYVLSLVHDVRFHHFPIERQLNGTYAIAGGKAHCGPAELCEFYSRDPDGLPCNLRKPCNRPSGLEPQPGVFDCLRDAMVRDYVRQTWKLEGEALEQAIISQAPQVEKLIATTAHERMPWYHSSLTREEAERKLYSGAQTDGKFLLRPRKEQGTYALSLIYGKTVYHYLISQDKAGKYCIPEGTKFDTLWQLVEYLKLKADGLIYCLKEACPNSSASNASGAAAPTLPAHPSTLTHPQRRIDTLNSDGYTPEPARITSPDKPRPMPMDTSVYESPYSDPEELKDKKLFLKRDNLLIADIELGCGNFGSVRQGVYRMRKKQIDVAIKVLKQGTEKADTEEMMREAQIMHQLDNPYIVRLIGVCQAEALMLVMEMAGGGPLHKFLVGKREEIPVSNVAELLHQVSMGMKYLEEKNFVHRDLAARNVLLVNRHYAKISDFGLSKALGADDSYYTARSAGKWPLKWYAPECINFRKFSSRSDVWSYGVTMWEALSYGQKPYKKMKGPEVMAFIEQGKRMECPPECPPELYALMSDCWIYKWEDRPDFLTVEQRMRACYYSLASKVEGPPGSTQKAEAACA
Procedure, shortened: as §1

Itk = molecular target: T3, Itk (Homo sapiens, UniProt Q08881); assay: Kinase inhibition assay (33P transfer), Itk; settings: Table 3; read-out: Itk-1
T3 construct: Kinases are expressed as either kinase domains or full length constructs; made in house
T3 sequence (Q08881 1-620): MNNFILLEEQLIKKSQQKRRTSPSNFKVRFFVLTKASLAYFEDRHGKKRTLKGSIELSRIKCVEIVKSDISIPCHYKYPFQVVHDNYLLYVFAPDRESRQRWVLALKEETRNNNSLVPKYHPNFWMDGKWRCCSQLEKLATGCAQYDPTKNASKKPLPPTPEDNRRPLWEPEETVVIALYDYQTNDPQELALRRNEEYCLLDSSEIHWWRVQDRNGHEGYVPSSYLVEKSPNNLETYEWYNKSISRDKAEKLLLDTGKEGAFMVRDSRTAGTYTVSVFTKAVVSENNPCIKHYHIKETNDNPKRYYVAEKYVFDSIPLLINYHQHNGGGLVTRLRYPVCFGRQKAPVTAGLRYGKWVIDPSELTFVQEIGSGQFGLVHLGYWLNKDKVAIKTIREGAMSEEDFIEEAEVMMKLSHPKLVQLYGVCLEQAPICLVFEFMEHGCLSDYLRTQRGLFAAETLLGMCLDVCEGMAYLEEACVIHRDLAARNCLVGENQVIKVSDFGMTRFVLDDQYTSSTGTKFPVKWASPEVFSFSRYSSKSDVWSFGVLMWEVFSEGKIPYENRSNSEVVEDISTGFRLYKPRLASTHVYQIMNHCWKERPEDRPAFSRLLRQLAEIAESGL
Procedure, shortened: (§2)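 Recombinant kinase domains or full-length GST- or His-tagged constructs, from E. coli or baculovirus/High Five cells, sometimes with regulatory polypeptides. Transfer of 33P from ATP to plate-bound poly(Glu,Tyr) 4:1 or poly(Arg,Ser) 3:1 counted by liquid scintillation after phosphoric acid wash; IC50 is the concentration halving incorporation.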

EGFR = molecular target: T4, EGFR (Homo sapiens, UniProt P00533); assay: Kinase inhibition assay (33P transfer), EGFR; settings: Table 2, kinase inhibition class; read-out: EGFR-1
T4 construct: Kinases are expressed as either kinase domains or full length constructs; made in house
T4 sequence (P00533 25-1210, species assumed): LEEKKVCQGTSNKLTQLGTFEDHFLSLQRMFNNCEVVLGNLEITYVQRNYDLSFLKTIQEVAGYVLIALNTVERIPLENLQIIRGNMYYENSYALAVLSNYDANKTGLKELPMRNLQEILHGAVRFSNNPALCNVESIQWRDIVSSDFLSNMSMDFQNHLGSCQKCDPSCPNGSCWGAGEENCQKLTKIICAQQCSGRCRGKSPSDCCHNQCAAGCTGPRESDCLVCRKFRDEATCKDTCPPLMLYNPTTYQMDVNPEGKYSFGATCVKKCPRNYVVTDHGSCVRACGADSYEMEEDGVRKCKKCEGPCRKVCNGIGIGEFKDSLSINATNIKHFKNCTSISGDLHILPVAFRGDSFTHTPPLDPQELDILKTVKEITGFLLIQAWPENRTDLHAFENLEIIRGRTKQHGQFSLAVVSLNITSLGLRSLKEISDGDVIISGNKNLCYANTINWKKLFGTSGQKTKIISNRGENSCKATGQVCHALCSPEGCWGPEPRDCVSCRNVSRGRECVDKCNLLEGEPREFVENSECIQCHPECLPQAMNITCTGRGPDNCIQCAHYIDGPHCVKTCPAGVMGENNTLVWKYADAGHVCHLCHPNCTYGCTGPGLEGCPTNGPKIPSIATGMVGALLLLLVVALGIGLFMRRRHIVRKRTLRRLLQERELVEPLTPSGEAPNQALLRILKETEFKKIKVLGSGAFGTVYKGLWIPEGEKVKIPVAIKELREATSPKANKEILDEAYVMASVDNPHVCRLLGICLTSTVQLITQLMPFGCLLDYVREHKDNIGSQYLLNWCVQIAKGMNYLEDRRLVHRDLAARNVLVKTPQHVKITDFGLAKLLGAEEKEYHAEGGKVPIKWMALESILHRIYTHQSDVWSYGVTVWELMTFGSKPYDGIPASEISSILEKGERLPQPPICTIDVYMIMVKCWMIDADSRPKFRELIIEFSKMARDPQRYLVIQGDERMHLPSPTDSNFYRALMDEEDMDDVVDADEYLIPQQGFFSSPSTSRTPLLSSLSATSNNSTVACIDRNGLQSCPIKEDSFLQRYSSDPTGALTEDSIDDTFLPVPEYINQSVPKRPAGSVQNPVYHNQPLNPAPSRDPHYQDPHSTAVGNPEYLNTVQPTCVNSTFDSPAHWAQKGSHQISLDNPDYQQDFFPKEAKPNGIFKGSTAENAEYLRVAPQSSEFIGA
Procedure, shortened: as §2

Kdr = molecular target: T5, Kdr (Homo sapiens, UniProt P35968); assay: Kinase inhibition assay (33P transfer), Kdr; settings: Table 3; read-out: KDR-1
T5 construct: Kinases are expressed as either kinase domains or full length constructs; made in house
Procedure, shortened: as §1

Tek = molecular target: T6, Tek (Homo sapiens, UniProt Q02763); assay: Kinase inhibition assay (33P transfer), Tek; settings: read-out: Tek-1
T6 construct: Kinases are expressed as either kinase domains or full length constructs; made in house
T6 sequence (Q02763 23-1124, species assumed): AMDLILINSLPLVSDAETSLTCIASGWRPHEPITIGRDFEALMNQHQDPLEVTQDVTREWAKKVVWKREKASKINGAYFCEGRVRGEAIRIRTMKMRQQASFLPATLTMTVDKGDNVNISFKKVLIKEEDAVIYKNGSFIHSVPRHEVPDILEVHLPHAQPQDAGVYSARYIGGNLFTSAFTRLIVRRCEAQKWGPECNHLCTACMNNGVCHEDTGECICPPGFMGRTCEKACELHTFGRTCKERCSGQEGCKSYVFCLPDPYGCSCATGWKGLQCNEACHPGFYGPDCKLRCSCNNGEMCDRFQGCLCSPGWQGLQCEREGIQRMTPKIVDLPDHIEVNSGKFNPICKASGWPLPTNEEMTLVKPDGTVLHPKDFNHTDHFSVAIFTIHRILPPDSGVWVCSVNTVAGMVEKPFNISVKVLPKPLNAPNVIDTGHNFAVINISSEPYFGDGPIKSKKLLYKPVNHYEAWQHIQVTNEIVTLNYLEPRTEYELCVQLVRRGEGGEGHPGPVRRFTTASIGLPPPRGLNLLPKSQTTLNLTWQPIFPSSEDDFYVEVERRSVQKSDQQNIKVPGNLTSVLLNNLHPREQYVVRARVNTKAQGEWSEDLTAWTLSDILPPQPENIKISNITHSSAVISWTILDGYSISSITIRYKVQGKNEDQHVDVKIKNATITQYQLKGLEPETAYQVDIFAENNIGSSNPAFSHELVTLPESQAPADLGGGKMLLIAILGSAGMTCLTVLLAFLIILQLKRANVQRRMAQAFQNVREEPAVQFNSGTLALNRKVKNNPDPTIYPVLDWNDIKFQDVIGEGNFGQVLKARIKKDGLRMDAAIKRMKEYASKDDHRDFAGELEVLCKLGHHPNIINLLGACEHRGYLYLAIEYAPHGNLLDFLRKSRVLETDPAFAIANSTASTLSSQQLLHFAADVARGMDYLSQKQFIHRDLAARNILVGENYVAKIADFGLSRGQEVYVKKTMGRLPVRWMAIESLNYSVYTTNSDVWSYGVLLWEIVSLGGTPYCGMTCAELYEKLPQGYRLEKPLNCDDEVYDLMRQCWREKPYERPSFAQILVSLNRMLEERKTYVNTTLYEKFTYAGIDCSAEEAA
Procedure, shortened: as §2

c-Met = molecular target: T7, c-Met (Homo sapiens, UniProt P08581); assay: Kinase inhibition assay (33P transfer), c-Met; settings: Table 2, kinase inhibition class; read-out: Met-1
T7 construct: Kinases are expressed as either kinase domains or full length constructs; made in house
Procedure, shortened: as §2

AKT = molecular target: T8, AKT (Homo sapiens, UniProt Q9Y243); assay: Kinase inhibition assay (33P transfer), AKT; settings: Table 2, kinase inhibition class; read-out: AKT3-1
T8 construct: Kinases are expressed as either kinase domains or full length constructs; made in house
T8 sequence (Q9Y243 whole entry, the tested form may be a part): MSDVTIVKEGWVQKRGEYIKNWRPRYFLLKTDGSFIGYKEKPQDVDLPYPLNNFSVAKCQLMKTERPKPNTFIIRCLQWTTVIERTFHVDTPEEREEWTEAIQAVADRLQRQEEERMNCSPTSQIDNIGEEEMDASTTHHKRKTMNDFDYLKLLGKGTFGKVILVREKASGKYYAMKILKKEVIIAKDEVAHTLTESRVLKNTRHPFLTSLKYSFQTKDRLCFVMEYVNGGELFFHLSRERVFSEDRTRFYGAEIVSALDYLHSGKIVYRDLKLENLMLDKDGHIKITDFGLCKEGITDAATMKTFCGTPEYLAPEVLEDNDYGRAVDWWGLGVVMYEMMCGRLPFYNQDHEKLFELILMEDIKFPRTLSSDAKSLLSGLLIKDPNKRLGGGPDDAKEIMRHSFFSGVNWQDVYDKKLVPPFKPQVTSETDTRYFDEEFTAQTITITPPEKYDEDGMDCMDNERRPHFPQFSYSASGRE
Procedure, shortened: as §1

IGFR-1 = molecular target: T9, IGFR-1 (Homo sapiens, UniProt P08069); assay: Kinase inhibition assay (33P transfer), IGFR-1; settings: Table 2, kinase inhibition class
T9 construct: Kinases are expressed as either kinase domains or full length constructs; made in house
T9 sequence (P08069 31-1367): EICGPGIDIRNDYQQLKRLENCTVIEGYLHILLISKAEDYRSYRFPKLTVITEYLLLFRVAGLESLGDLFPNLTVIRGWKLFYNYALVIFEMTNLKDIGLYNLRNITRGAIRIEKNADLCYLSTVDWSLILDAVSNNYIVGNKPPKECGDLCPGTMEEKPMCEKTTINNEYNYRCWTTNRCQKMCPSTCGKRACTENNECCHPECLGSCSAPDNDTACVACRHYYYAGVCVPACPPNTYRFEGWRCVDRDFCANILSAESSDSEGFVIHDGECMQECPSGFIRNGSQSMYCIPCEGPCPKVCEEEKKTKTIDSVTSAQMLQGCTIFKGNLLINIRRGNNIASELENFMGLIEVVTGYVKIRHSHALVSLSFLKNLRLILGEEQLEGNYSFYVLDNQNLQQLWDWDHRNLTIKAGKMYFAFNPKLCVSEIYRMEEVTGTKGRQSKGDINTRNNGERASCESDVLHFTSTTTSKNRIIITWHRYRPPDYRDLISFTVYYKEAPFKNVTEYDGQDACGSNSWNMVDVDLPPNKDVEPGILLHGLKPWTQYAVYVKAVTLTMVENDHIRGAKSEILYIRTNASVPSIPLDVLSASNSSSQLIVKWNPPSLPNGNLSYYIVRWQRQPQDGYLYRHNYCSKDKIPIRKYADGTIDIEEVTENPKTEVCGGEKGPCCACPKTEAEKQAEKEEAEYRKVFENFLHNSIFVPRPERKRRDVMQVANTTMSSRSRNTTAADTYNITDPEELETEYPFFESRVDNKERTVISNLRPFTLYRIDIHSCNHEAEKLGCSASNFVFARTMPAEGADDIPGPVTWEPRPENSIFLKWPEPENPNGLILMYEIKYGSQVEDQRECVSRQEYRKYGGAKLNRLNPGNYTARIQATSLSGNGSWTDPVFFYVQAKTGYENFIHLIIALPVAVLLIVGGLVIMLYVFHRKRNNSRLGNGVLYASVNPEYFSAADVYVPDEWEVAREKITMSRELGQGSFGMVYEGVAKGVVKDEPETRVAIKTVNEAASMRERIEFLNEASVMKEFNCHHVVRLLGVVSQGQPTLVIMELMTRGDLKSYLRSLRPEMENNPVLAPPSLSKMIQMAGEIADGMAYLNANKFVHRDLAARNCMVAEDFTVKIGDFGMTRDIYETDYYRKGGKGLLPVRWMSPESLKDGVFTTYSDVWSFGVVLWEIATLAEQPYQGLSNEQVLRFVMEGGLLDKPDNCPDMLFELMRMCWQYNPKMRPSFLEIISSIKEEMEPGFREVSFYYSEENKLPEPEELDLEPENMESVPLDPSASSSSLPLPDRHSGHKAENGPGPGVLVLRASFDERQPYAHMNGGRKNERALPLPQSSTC

EPHB4 = molecular target: T10, EPHB4 (Homo sapiens, UniProt P54760); assay: Kinase inhibition assay (33P transfer), EPHB4; settings: read-out: EPHB4-1
T10 construct: Kinases are expressed as either kinase domains or full length constructs; made in house
T10 sequence (P54760 16-987): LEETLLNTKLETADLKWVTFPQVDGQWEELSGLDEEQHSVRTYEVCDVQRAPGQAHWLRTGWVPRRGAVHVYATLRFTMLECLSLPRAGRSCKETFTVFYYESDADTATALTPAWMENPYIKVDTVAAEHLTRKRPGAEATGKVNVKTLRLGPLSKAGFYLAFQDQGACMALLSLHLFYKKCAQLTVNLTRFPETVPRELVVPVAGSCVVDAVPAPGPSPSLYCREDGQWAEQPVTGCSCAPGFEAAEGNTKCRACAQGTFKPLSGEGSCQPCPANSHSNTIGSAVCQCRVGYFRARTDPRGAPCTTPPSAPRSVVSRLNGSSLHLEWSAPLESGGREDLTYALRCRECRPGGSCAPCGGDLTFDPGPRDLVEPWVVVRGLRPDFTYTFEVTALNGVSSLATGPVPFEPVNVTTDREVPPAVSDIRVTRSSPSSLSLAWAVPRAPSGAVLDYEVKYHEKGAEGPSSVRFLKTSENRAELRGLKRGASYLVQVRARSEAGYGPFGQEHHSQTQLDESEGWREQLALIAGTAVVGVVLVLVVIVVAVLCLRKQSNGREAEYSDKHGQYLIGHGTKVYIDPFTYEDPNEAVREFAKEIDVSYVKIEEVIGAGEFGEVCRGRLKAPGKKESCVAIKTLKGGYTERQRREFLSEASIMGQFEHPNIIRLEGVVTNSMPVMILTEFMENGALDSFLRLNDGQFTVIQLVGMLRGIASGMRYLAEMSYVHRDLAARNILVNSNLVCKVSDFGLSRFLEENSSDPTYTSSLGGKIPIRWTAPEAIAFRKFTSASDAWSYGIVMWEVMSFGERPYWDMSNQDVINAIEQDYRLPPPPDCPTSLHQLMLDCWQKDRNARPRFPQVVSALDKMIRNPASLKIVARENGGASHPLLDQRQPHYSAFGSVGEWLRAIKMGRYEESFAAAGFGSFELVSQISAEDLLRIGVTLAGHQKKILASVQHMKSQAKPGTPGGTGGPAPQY

T1 sequence (P06239 whole entry, species assumed, the tested form may be a part): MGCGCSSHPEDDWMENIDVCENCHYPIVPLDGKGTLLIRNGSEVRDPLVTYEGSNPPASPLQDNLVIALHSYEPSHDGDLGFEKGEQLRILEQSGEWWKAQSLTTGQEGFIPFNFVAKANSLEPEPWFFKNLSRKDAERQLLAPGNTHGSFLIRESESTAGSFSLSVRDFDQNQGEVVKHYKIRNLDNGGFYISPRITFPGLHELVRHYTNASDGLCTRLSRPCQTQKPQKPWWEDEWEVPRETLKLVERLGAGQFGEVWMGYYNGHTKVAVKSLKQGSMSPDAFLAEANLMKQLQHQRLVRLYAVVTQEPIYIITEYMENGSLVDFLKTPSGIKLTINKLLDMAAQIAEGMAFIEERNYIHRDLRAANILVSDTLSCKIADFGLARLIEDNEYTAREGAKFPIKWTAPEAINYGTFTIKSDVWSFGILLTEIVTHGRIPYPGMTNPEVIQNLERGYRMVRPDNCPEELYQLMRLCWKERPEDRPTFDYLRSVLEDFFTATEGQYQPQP

| IC50 (Lck) | IC50 (Zap-70) | IC50 (Itk) | IC50 (EGFR) | IC50 (Kdr) | IC50 (Tek) | IC50 (c-Met) | IC50 (AKT) | IC50 (IGFR-1) | IC50 (EPHB4) | Structure (SMILES) |
| --- | --- | --- | --- | --- | --- | --- | --- | --- | --- | --- |
| > 12.5 µM | > 12.5 µM | > 12.5 µM | > 12.5 µM | > 12.5 µM | > 12.5 µM | > 12.5 µM | > 12.5 µM | > 12.5 µM | > 12.5 µM | COc1cc(Nc2ncnc(N3CCN(C)CC3)n2)cc(OC)c1OC [Compound 212] |
| 5.09 to 7.42 µM | > 9.54 µM | > 9.54 µM | 0.848 to 5.09 µM | > 9.54 µM | > 9.54 µM | > 9.54 µM | > 9.54 µM | > 9.54 µM | 5.09 to 7.42 µM | COc1ccc(Nc2ncnc(N(CC(=O)OC(C)(C)C)c3ccc(Cl)cc3)n2)cc1OC [Compound 973] |
| > 10.1 µM | > 10.1 µM | > 10.1 µM | 0.898 to 5.39 µM | 0.898 to 5.39 µM | > 10.1 µM | 0.898 to 5.39 µM | > 10.1 µM | > 10.1 µM | > 10.1 µM | COc1cc(Nc2ncnc(Nc3cccc(Oc4ccccc4)c3)n2)cc(OC)c1OC [Compound 105] |
| 4.78 to 6.97 µM | > 8.96 µM | > 8.96 µM | 0.797 to 4.78 µM | 4.78 to 6.97 µM | 6.97 to 8.96 µM | > 8.96 µM | > 8.96 µM | > 8.96 µM | 6.97 to 8.96 µM | COc1cc(Nc2ncnc(N(CC(=O)OC(C)(C)C)c3ccc(Cl)cc3)n2)cc(OC)c1OC [Compound 291] |
| > 12 µM | > 12 µM | > 12 µM | 1.06 to 6.39 µM | > 12 µM | > 12 µM | > 12 µM | > 12 µM | < 1.06 µM | 6.39 to 9.31 µM | COc1ccc(Nc2ncnc(Nc3ccc(F)c(Cl)c3)n2)cc1OC [Compound 113] |
| > 12.1 µM | > 12.1 µM | > 12.1 µM | > 12.1 µM | > 12.1 µM | > 12.1 µM | > 12.1 µM | > 12.1 µM | > 12.1 µM | > 12.1 µM | COc1cc(Nc2ncnc(-c3cccc(Cl)c3)n2)cc(OC)c1OC [Compound 220] |
| > 9.31 µM | > 9.31 µM | > 9.31 µM | 4.96 to 7.24 µM | 0.827 to 4.96 µM | 0.827 to 4.96 µM | > 9.31 µM | > 9.31 µM | > 9.31 µM | > 9.31 µM | COc1cc(Nc2ncnc(N(Cc3ccccc3)c3nc4ccccc4[nH]3)n2)cc(OC)c1OC [Compound 373] |
| > 9.86 µM | > 9.86 µM | > 9.86 µM | > 9.86 µM | > 9.86 µM | 7.67 to 9.86 µM | > 9.86 µM | > 9.86 µM | > 9.86 µM | > 9.86 µM | COc1cc(NC(=O)Nc2ncnc(Nc3cc(OC)c(OC)c(OC)c3)n2)cc(OC)c1 [Compound 22] |
| 9.08 to 11.7 µM | 1.04 to 6.23 µM | > 11.7 µM | 1.04 to 6.23 µM | 1.04 to 6.23 µM | 6.23 to 9.08 µM | 1.04 to 6.23 µM | 1.04 to 6.23 µM | 6.23 to 9.08 µM | 1.04 to 6.23 µM | Oc1ccc(Nc2ncnc(Nc3ccc(OCc4ccccc4)cc3)n2)cc1 [Compound 158] |
| > 10.5 µM | 0.931 to 5.59 µM | > 10.5 µM | 8.15 to 10.5 µM | 0.931 to 5.59 µM | > 10.5 µM | > 10.5 µM | 5.59 to 8.15 µM | 5.59 to 8.15 µM | 0.931 to 5.59 µM | COc1cc(Nc2ncnc(Nc3ccc(-c4ccccc4)cc3)n2)cc(OC)c1OC [Compound 100] |
| > 12.1 µM | > 12.1 µM | > 12.1 µM | > 12.1 µM | 9.42 to 12.1 µM | > 12.1 µM | > 12.1 µM | > 12.1 µM | > 12.1 µM | > 12.1 µM | O=c1[nH]c2ccccc2n1-c1ncnc(Nc2ccc(-c3cnco3)cc2)n1 [Compound 379] |
| 0.934 to 5.6 µM | > 10.5 µM | > 10.5 µM | > 10.5 µM | 0.934 to 5.6 µM | 8.17 to 10.5 µM | 0.934 to 5.6 µM | > 10.5 µM | 0.934 to 5.6 µM | 5.6 to 8.17 µM | COc1cc(Nc2ncnc(Nc3nc4ccc(F)cc4s3)n2)cc(OC)c1OC [Compound 317] |
| > 11.3 µM | > 11.3 µM | > 11.3 µM | > 11.3 µM | > 11.3 µM | > 11.3 µM | > 11.3 µM | > 11.3 µM | > 11.3 µM | > 11.3 µM | COc1ccc(CNc2ncnc(Nc3cc(OC)c(OC)c(OC)c3)n2)cc1 [Compound 80] |
| > 12.4 µM | > 12.4 µM | > 12.4 µM | > 12.4 µM | > 12.4 µM | > 12.4 µM | > 12.4 µM | 1.1 to 6.62 µM | 6.62 to 9.66 µM | 1.1 to 6.62 µM | COc1cc(Nc2ncnc(NN3CCOCC3)n2)cc(OC)c1OC [Compound 103] |
| > 12.5 µM | > 12.5 µM | > 12.5 µM | > 12.5 µM | 1.11 to 6.64 µM | > 12.5 µM | 9.68 to 12.5 µM | > 12.5 µM | > 12.5 µM | > 12.5 µM | COc1cc(Nc2ncnc(N3CCC(O)CC3)n2)cc(OC)c1OC [Compound 208] |
| 6.84 to 8.8 µM | > 8.8 µM | > 8.8 µM | 4.69 to 6.84 µM | 6.84 to 8.8 µM | > 8.8 µM | > 8.8 µM | > 8.8 µM | > 8.8 µM | > 8.8 µM | COc1cc(Nc2ncnc(N(CC(=O)OC(C)(C)C)c3ccc4c(c3)OCO4)n2)cc(OC)c1OC [Compound 309] |
